Measurements published in US20160183526A1, “FUNGICIDAL COMPOSITIONS” (Dow AgroSciences LLC, priority 2014, published 2016).

Experiments:
Type in all cases: physicochemical
[1] = Solubility of Compound A and prothioconazole in benzyl acetate/AMD810/cyclohexanone blends at 10° C.; conditions: one week
Description: A total of 20 g of each solvent blend was prepared per sample. For example, one of the blends (Blend 4) was prepared by combining cyclohexanone 0.2 (4 g), benzyl acetate 0.2 (4 g) and AMD810 0.6 (12 g). To Blend 4 were added amounts of Compound A and prothioconazole technical active ingredients to achieve saturation concentrations of each. The samples were then stored at 10° C. for one week and then were analysed for soluble active ingredient content.

[2] = Approximate relative solubility of active ingredients in organic solvents at ambient temperature
Description: The approximate solubility of Compound A was determined by mixing a known mass of the active ingredient with an increasing mass of each solvent at ambient temperature. […] The solubility of Compound A in the solvents used in this screening procedure was generally classified within the following concentration ranges: […]

[3] = Accelerated storage stability of Compound A in liquid compositions, 2 weeks at 54° C. (HPLC); conditions: 2 weeks 54° C.
Description: The test compositions were prepared in a manner similar to that described in Example 1 using one or more of Compound A, prothioconazole, pyraclostrobin, benzyl acetate, and AMD 810, and a third solvent chosen from cyclohexanone, acetophenone, 2-heptanone, 2-heptanol, oleyl alcohol or 2-ethylhexanol.

[4] = Solubility of a mixture of Compound A and prothioconazole in benzyl acetate/AMD810 blends at 10° C. (HPLC); conditions: both actives saturated
Description: A study of the Compound A and prothioconazole solubility in blends of benzyl acetate/AMD810 was conducted. To each solvent blend both actives were added until each was saturated and the resulting mixtures were then stored at 10° C. until equilibrium was obtained. Aliquots of the supernatant layer were taken from each sample, filtered (0.45 μm mesh) and analyzed by HPLC to determine the solution concentration of each active in the blends.

[5] = Approximate relative solubility of active ingredients in organic solvents at ambient temperature; remark: listed apart in the source

COc1ccnc(C(=O)N[C@H]2COC(=O)[C@H](Cc3ccccc3)[C@@H](OC(=O)C(C)C)[C@H](C)OC2=O)c1OCOC(=O)C(C)C [Compound A, propanoic acid, 2-methyl-, [[4-methoxy-2-[[[(3S,7R,8R,9S)-9-methyl-8-(2-methyl-1-oxopropoxy)-2,6-dioxo-7-(phenylmethyl)-1,5-dioxonan-3-yl]amino]carbonyl]-3-pyridinyl]oxy]methyl ester]
Compound A Solubility @ 10° C. ([1]; Blend 1: cyclohexanone 0/benzyl acetate 0/AMD810 1 (weight fraction)): 3.3 % w/w | Compound A Solubility @ 10° C. ([1]; Blend 2: cyclohexanone 0/benzyl acetate 0.2/AMD810 0.8 (weight fraction)): 4.3 % w/w | Compound A Solubility @ 10° C. ([1]; Blend 3: cyclohexanone 0.2/benzyl acetate 0/AMD810 0.8 (weight fraction)): 4.5 % w/w | Compound A Solubility @ 10° C. ([1]; Blend 4: cyclohexanone 0.2/benzyl acetate 0.2/AMD810 0.6 (weight fraction)): 6.2 % w/w | Compound A Solubility @ 10° C. ([1]; Blend 5: cyclohexanone 0/benzyl acetate 0.4/AMD810 0.6 (weight fraction)): 6.5 % w/w | Compound A Solubility @ 10° C. ([1]; Blend 6: cyclohexanone 0.2/benzyl acetate 0.4/AMD810 0.4 (weight fraction)): 10.5 % w/w | Compound A Solubility @ 10° C. ([1]; Blend 7: cyclohexanone 0/benzyl acetate 0.6/AMD810 0.4 (weight fraction)): 11 % w/w | Compound A Solubility @ 10° C. ([1]; Blend 8: cyclohexanone 0/benzyl acetate 0.8/AMD810 0.2 (weight fraction)): 12 % w/w | Compound A Solubility @ 10° C. ([1]; Blend 10: cyclohexanone 0.2/benzyl acetate 0.6/AMD810 0.2 (weight fraction)): 13.6 % w/w | Compound A Solubility @ 10° C. ([1]; Blend 11: cyclohexanone 0/benzyl acetate 1/AMD810 0 (weight fraction)): 14.3 % w/w | Compound A Solubility @ 10° C. ([1]; Blend 12: cyclohexanone 0.2/benzyl acetate 0.8/AMD810 0 (weight fraction)): 15.2 % w/w | Compound A content of clear solution ([2]; 0.2 g Compound A mixed with 1.38 g cyclohexanone): 12.6 % w/w | Relative Solubility of Compound A ([2]; in 2-ethylhexanol): Very Low (<3.0) | Relative Solubility of Compound A ([2]; in Alkyl naphthalene mixture): Very Low (<3.0) | Relative Solubility of Compound A ([2]; in Benzyl acetate): High (>8.4) | Relative Solubility of Compound A ([2]; in Cyclohexanone): High (>8.4) | Relative Solubility of Compound A ([2]; in Isoparaffin): Very Low (<3.0) | Relative Solubility of Compound A ([2]; in Isopropyl benzoate): Medium (8.4 to 5.6) | Relative Solubility of Compound A ([2]; in Methyl oleate): Very Low (<3.0) | Relative Solubility of Compound A ([2]; in Methyl-5-(Dimethylamino)-2-Methyl-5-Oxopentanoate): High (>8.4) | Relative Solubility of Compound A ([2]; in Pentanedioic acid, 2-methyl-1, 5-dimethyl ester): Medium (8.4 to 5.6) | Relative Solubility of Compound A ([2]; in Tributoxyethyl phosphate): Low (5.6 to 3.0) | Compound A after Storage (% retention) ([3]; wt %: Compound A 3.4, AMD 810 96.0): 49^ % retention | Compound A after Storage (% retention) ([3]; wt %: Compound A 4.1, pyraclostrobin 5.2, benzyl acetate 37.0, AMD 810 20.0, cyclohexanone 8.2, emulsifier blend 14.7): 93^2 % retention | Compound A after Storage (% retention) ([3]; wt %: Compound A 4.9, benzyl acetate 94.1): 85^ % retention | Compound A after Storage (% retention) ([3]; wt %: Compound A 4.9, prothioconazole 7.4, benzyl acetate 46.8, AMD 810 25.2, no third solvent, emulsifier blend 14.7): 91^2 % retention | Compound A after Storage (% retention) ([3]; wt %: Compound A 4.9, pyraclostrobin 5.0, benzyl acetate 48.4, AMD 810 26.0, no third solvent, emulsifier blend 14.7): 92^2 % retention | Compound A after Storage (% retention) ([3]; wt %: Compound A 4.9, pyraclostrobin 6.3, benzyl acetate 41.2, AMD 810 22.2, cyclohexanone 9.8): 98^ % retention | Compound A after Storage (% retention) ([3]; wt %: Compound A 4.9, pyraclostrobin 6.3, benzyl acetate 44.4, AMD 810 23.9, 2-ethyl hexanol 4.9, emulsifier blend 14.7): 96^2 % retention | Compound A after Storage (% retention) ([3]; wt %: Compound A 4.9, pyraclostrobin 6.3, benzyl acetate 44.4, AMD 810 23.9, 2-heptanol 4.9, emulsifier blend 14.7): 94^2 % retention | Compound A after Storage (% retention) ([3]; wt %: Compound A 4.9, pyraclostrobin 6.3, benzyl acetate 44.4, AMD 810 23.9, 2-heptanone 4.9, emulsifier blend 14.7): 93^2 % retention | Compound A after Storage (% retention) ([3]; wt %: Compound A 4.9, pyraclostrobin 6.3, benzyl acetate 44.4, AMD 810 23.9, acetophenone 4.9, emulsifier blend 14.7): 94^2 % retention | Compound A after Storage (% retention) ([3]; wt %: Compound A 4.9, pyraclostrobin 6.3, benzyl acetate 44.4, AMD 810 23.9, oleyl alcohol 4.9, emulsifier blend 14.7): 92^2 % retention | Compound A after Storage (% retention) ([3]; wt %: Compound A 5.0, pyraclostrobin 6.4, benzyl acetate 40.9, AMD 810 22.0, 2-ethyl hexanol 10.0): 95^ % retention | Compound A after Storage (% retention) ([3]; wt %: Compound A 7.7, pyraclostrobin 9.8, benzyl acetate 37.1, AMD 810 20.0, cyclohexanone 9.6): 97^ % retention | Compound A after Storage (% retention) ([3]; wt %: Compound A 7.8, pyraclostrobin 9.9, benzyl acetate 36.7, AMD 810 19.8, 2-ethyl hexanol 9.7): 97^ % retention | Compound A after Storage (% retention) ([3]; wt %: Compound A 12.0, cyclohexanone 85.7): 96^ % retention | Compound A Solubility at 10° C. ([4]; benzyl acetate 0 wt % in blend with AMD810): 3.3 % w/w | Compound A Solubility at 10° C. ([4]; benzyl acetate 20 wt % in blend with AMD810): 4.3 % w/w | Compound A Solubility at 10° C. ([4]; benzyl acetate 40 wt % in blend with AMD810): 6.5 % w/w | Compound A Solubility at 10° C. ([4]; benzyl acetate 60 wt % in blend with AMD810): 11.0 % w/w | Compound A Solubility at 10° C. ([4]; benzyl acetate 80 wt % in blend with AMD810): 12.0 % w/w | Compound A Solubility at 10° C. ([4]; benzyl acetate 100 wt % in blend with AMD810): 14.3 % w/w | Relative Solubility of Compound A ([5]; in 2-ethylhexyl benzoate): Very Low (<3.0) | Relative Solubility of Compound A ([5]; in 2-ethylhexyl lactate): Very Low (<3.0) | Relative Solubility of Compound A ([5]; in 2-heptanone): Medium (8.4 to 5.6) | Relative Solubility of Compound A ([5]; in Benzyl alcohol): High (>8.4) | Relative Solubility of Compound A ([5]; in Butyl benzoate): Medium (8.4 to 5.6) | Relative Solubility of Compound A ([5]; in Butyl lactate): Medium (8.4 to 5.6) | Relative Solubility of Compound A ([5]; in Butylene carbonate): Very Low (<3.0) | Relative Solubility of Compound A ([5]; in Di-n-butyl carbonate): Very Low (<3.0) | Relative Solubility of Compound A ([5]; in Diethylene glycol monoethyl ether): Low (5.6 to 3.0) | Relative Solubility of Compound A ([5]; in Ethyl Diglycol Acetate): Low (5.6 to 3.0) | Relative Solubility of Compound A ([5]; in Methyl salicylate): High (>8.4) | Relative Solubility of Compound A ([5]; in N,N dimethyl fatty acid amides): Low (5.6 to 3.0) | Relative Solubility of Compound A ([5]; in N-formyl morpholine and propylene carbonate): High (>8.4) | Relative Solubility of Compound A ([5]; in Polyethylene glycol): Very Low (<3.0) | Relative Solubility of Compound A ([5]; in Polypropylene glycol): Very Low (<3.0) | Relative Solubility of Compound A ([5]; in Propylene carbonate): Very Low (<3.0) | Relative Solubility of Compound A ([5]; in Soybean oil): Very Low (<3.0) | Relative Solubility of Compound A ([5]; in Sulfolane): High (>8.4) | Relative Solubility of Compound A ([5]; in dimethyl esters of adipic, glutaric and succinic acids): Low (5.6 to 3.0)
